The text below walks through data of patent US10150743B2, “Carboxylic acid compounds” (priority 2012, dated 2018).

Holding throughout (assay type): cell-based
In assay [1] the target is human TLR7 (Homo sapiens (Human), UniProt Q9NYK1). Put plainly: Human TLR7 assay (SEAP reporter in HEK293). As to conditions: SEAP induction, overnight incubation at 37° C., 0.1% DMSO; read-out: TLR7 (pEC50) (converted). An excerpt:
Recombinant human TLR7 was stably expressed in a HEK293 cell line already stably expressing the pNiFty2-SEAP reporter plasmid; integration of the reporter gene was maintained by selection with the antibiotic zeocin. The most common variant sequence of human TLR7 (represented by the EMBL sequence AF240467) was cloned into the mammalian cell expression vector pUNO and transfected into this reporter cell-line. Transfectants with stable expression were selected using the antibiotic blasticidin. In this reporter cell-line, expression of secreted alkaline phosphatase (SEAP) is controlled by an NFkB/ELAM-1 composite promoter comprising five NFkB sites combined with the proximal ELAM-1 promoter. TLR signaling leads to the translocation of NFkB and activation of the promoter results in expression of the SEAP gene. TLR7-specific activation was assessed by determining the level of SEAP produced following overnight incubation of the cells at 37° C. with the standard compound in the presence of 0.1% (v/v) dimethylsulfoxide (DMSO). Concentration dependent induction of SEAP production by compounds was expressed as the concentration of compound which produced half of the maximal level of SEAP induction for that compound (EC50).

Assay [2] concerns the target human TLR8 (Homo sapiens (Human), UniProt Q9NR97). In words: Human TLR8 assay (TLR8/NF-kB/SEAPorter HEK 293 Cell Line). To be noted: SEAP induction, overnight incubation at 37° C., 0.1% DMSO; read-out: TLR8 pEC50 (converted). An excerpt:
TLR8/NF-kB/SEAPorter™ HEK 293 Cell Line (Imgenex Corporation) is a stably co-transfected cell line which expresses full-length human TLR8 and the secreted alkaline phosphatase (SEAP) reporter gene under the transcriptional control of an NF-κB response element. TLR8 expression in this cell line has been tested by flow cytometry. Transfectants with stable expression were selected using the antibiotic blasticidin and geneticin. TLR signaling leads to the translocation of NF-κB and activation of the promoter results in expression of the SEAP gene. TLR8-specific activation was assessed by determining the level of SEAP produced following overnight incubation of the cells at 37° C. with the standard compound in the presence of 0.1% (v/v) dimethylsulfoxide (DMSO). Concentration dependent induction of SEAP production by compounds was expressed as the concentration of compound which produced half of the maximal level of SEAP induction for that compound (EC50).

For assay [3], the target named is hERG ion channel (Homo sapiens (Human), UniProt Q12809). In words: hERG Analysis - Method 1 (IONWORKS HT, CHO-hERG cells). As to conditions: ~21° C. Here is the method: The hERG-expressing Chinese hamster ovary K1 (CHO) cells described by (Persson, Carlsson, Duker, & Jacobson, 2005) were grown to semi-confluence at 37° C. in a humidified environment (5% CO2) in F-12 Ham medium containing L-glutamine, 10% foetal calf serum (FCS) and 0.6 mg/mL hygromycin (all available from Sigma-Aldrich). Prior to use, the monolayer was washed using a pre-warmed (37° C.) 3 mL aliquot of Versene 1:5,000 (Invitrogen) After aspiration of this solution the flask was incubated at 37° C. in an incubator with a further 2 mL of Versene 1:5,000 for a period of 6 minutes. Cells were then detached from the bottom of the flask by gentle tapping and 10 mL of Dulbecco's Phosphate-Buffered Saline containing calcium (0.9 mM) and magnesium (0.5 mM) (PBS; Invitrogen) was then added to the flask and aspirated into a 15 mL centrifuge tube prior to centrifugation (50 g, for 4 mins). The resulting supernatant was discarded and the pellet gently re-suspended in 3 mL of PBS. A 0.5 mL aliquot of cell suspension was removed and the number of viable cells (based on trypan blue exclusion) was determined in an automated reader (Cedex; Innovatis) so that the cell re-suspension volume can be adjusted with PBS to give the desired final cell concentration. It is the cell concentration at this point in the assay that is quoted when referring to this parameter. CHO-Kv1.5 cells, which were used to adjust the voltage offset on IONWORKS™ HT, were maintained and prepared for use in the same way.
Chain of hERG ion channel (Q12809 whole entry): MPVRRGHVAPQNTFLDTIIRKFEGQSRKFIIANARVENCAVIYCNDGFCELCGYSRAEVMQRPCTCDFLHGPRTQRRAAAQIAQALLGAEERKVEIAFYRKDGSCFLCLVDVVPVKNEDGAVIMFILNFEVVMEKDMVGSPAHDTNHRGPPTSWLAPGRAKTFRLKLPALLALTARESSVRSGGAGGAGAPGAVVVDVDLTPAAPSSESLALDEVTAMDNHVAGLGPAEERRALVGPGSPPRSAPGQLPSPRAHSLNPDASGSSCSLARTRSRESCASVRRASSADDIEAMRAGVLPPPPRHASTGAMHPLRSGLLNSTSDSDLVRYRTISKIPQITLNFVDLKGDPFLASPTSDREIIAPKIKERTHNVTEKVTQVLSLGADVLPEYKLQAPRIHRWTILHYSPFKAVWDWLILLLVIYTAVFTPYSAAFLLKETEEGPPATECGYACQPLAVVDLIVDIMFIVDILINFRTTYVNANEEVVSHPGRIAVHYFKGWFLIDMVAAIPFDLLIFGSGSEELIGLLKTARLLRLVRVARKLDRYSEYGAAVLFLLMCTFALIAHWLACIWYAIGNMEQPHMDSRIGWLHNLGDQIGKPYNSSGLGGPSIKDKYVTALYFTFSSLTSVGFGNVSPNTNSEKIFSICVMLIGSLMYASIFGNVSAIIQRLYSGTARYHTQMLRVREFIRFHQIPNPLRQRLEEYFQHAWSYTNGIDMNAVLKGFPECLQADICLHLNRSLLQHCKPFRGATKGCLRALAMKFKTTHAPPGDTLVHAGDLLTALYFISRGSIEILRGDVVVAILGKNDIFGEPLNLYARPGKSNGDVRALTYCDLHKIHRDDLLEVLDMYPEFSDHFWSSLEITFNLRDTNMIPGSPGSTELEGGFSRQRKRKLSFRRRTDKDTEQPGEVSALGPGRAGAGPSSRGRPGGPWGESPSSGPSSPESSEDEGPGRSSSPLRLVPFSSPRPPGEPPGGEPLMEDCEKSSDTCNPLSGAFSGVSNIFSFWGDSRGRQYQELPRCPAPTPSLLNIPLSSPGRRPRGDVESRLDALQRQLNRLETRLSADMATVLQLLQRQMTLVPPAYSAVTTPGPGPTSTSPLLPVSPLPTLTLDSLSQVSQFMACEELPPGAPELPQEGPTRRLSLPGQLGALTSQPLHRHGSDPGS
The principles and operation of this device have been described by (Schroeder, Neagle, Trezise, & Worley, 2003). Briefly, the technology is based on a 384-well plate (PATCHPLATE™) in which a recording was attempted in each well by using suction to position and hold a cell on a small hole separating two isolated fluid chambers. Once sealing had taken place, the solution on the underside of the PATCHPLATE™ was changed to one containing amphotericin B. This permeablises the patch of cell membrane covering the hole in each well and, in effect, allowed a perforated, whole-cell patch clamp recording to be made.
A β-test IONWORKS™ HT from Essen Instrument was used. […] (˜21° C.), as follows. The reservoir in the “Buffer” position was loaded with 4 mL of PBS and that in the “Cells” position with the CHO-hERG cell suspension described above. A 96-well plate (V-bottom, Greiner Bio-one) containing the compounds to be tested (at 3-fold above their final test concentration) was placed in the “Plate 1” position and a PATCHPLATE™ was clamped into the PATCHPLATE™ station. […]
For orientation: The hERG channel carries a current that helps repolarise heart muscle cells.

For assay [4], the target named is hERG potassium channel (Homo sapiens (Human), UniProt Q12809). In words: hERG Analysis - Method 2 (QPATCH HT, CHO-hERG cells). To be noted: half-maximal inhibition concentration, 22±2° C. Here is the method:
The hERG potassium current was measured in a hERG-stably-expressing Chinese hamster ovary K1 (CHO) cells. The experiments were performed using an automated planar patch-clamp system QPATCH HT (Sophion Bioscience A/S). The application of pressure for forming gigaseals and whole-cell patch clamp configuration were established using the QPATCH assay software. Patch-clamp experiments were performed in voltage-clamp mode and whole-cell currents were recorded from individual cells. The following stimulation protocol was applied to investigate the effects of compounds on hERG potassium channel: The membrane potential was held at −80 mV and repetitively (every 15 s) depolarized to +20 mV for 5 s after the pulse to −50 mV for 20 ms served to define the baseline, followed by repolarizing step to −50 mV for 5 s to evaluate of the tail current amplitude. Experiments were conducted at room temperature (22±2° C.).
Effects of compounds were determined from cumulative applications of increasing 4 concentrations and calculated as percent of blocked current. The data points were fitted with Hill equation to calculate half-maximal inhibition concentrations. The test solution includes: Extracellular solution (mM): 2 mM of CaCl2, 1 mM of MgCl2, 10 mM of HEPES, 4 mM of KCl, 145 mM of NaCl, and 10 mM of Glucose; and Intracellular solution (mM): 5.4 mM of CaCl2, 1.8 mM of MgCl2, 10 mM of HEPES, 31 mM of KOH, 10 mM of EGTA, 120 mM of KCl, and 4 mM of ATP.

Each structure is given as a SMILES string.

Chain of human TLR7 (Q9NYK1 27-1049): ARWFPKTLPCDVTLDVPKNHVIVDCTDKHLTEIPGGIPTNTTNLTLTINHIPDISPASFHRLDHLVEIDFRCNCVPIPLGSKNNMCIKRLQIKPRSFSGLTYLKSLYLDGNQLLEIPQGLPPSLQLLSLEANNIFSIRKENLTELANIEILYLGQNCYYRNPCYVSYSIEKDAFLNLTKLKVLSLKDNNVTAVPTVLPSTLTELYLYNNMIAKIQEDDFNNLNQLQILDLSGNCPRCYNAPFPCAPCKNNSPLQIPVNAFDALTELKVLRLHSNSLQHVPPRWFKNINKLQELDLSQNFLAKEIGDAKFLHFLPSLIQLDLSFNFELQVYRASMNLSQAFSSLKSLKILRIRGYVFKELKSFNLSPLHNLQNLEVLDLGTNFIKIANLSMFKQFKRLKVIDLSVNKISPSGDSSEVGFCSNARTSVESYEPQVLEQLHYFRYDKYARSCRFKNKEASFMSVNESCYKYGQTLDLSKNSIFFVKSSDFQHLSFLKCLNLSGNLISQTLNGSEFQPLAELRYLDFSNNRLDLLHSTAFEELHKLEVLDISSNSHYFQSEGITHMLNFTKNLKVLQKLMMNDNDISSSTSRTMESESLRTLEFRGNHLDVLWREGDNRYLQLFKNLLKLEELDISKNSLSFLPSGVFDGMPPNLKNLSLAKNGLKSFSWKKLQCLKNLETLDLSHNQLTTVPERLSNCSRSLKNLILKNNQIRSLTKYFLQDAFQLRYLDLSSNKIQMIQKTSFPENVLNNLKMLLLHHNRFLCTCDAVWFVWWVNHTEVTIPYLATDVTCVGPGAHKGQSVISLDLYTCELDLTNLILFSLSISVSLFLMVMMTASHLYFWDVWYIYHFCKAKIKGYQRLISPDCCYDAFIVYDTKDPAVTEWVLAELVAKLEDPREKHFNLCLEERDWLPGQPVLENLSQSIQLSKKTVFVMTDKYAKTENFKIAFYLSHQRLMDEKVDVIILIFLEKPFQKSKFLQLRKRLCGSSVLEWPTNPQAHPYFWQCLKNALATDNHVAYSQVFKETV
Chain of human TLR8 (Q9NR97 27-1041): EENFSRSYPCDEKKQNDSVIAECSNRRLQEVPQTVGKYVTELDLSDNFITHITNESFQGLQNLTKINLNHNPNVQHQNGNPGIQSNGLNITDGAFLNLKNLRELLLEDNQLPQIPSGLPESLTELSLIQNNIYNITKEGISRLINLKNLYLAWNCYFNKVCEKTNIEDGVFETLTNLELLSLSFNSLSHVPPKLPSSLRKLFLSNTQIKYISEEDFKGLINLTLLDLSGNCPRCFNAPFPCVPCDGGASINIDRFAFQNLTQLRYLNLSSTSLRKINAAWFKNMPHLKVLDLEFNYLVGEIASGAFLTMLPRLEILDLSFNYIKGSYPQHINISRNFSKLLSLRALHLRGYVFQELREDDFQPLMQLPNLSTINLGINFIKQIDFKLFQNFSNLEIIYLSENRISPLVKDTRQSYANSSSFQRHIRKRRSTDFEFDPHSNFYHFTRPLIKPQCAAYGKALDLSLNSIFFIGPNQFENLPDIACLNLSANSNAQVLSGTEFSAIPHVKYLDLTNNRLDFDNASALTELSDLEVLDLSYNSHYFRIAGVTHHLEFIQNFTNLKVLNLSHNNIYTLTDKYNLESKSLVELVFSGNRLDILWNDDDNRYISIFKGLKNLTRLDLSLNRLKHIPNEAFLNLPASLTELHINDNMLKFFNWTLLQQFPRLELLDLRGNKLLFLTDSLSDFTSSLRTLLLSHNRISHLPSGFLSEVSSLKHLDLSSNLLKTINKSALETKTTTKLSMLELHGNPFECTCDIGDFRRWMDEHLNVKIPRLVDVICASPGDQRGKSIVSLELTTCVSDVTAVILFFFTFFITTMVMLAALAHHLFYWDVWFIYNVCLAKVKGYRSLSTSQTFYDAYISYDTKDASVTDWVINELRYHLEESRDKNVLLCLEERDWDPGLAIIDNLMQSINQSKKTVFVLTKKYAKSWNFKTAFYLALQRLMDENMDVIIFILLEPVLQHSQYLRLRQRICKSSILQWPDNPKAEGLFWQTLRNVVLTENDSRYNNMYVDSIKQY
Chain of hERG potassium channel (Q12809 whole entry): as the sequence (Q12809 whole entry) above

As a reminder, the IC50 is the midpoint of a concentration-inhibition curve. A high value points to lower potency. Consider `CCC[C@@H](CCO)Nc1nc(N)nc(C)c1Cc1ccc(CN(CC)CC(=O)O)cc1OC` [Example 1, (S)-2-((4-((2-amino-4-(1-hydroxyhexan-3-ylamino)-6-methylpyrimidin-5-yl)methyl)-3-methoxybenzyl)(ethyl)amino)acetic acid], for which the figures for the EC50 in assay [1] and in assay [2] were 158 nM and greater than 10000 nM, respectively. Further, the IC50 was greater than 33000 nM in assay [3] and greater than 10000 nM in assay [4].
Turning to `CCCCNc1nc(N)nc(C)c1Cc1ccc(CN(CC)CC(=O)O)cc1OC` [Example 2, 2-((4-((2-amino-4-(butylamino)-6-methylpyrimidin-5-yl)methyl)-3-methoxybenzyl) (ethyl)amino)acetic acid], the EC50 in assay [1] is 794 nM; in assay [2], greater than 10000 nM. Further, the IC50 in assay [4] is greater than 10000 nM.
`CCC[C@@H](CCO)Nc1nc(N)nc(C)c1Cc1ccc(CN(CC)CCC(=O)O)cc1OC` [Example 5, (S)-3-((4-((2-amino-4-(1-hydroxyhexan-3-ylamino)-6-methylpyrimidin-5-yl)methyl)-3-methoxybenzyl)(ethyl)amino)propanoic acid]: the EC50 is 50.1 nM in assay [1] and greater than 10000 nM in assay [2]. In addition, the results for the half-maximal inhibitory concentration (IC50) in assay [3] and in assay [4] were greater than 33000 nM and greater than 10000 nM, respectively.
Turning to `CCC[C@@H](CCO)Nc1nc(N)nc(C)c1Cc1ccc(CN(CC(=O)O)C(C)=O)cc1OC` [Example 7, (S)-2-(N-(4-((2-amino-4-(1-hydroxyhexan-3-ylamino)-6-methylpyrimidin-5-yl)methyl)-3-methoxybenzyl)acetamido)acetic acid], the EC50 was 251 nM in assay [1] and greater than 10000 nM in assay [2]. For the same compound, the IC50 in assay [4] is greater than 10000 nM.
In the case of `CCC[C@@H](CCO)Nc1nc(N)nc(C)c1Cc1ccc(OCCCN2CCC[C@@H]2C(=O)O)cc1OC` [Example 8, (R)-1-(3-(4-((2-amino-4-((S)-1-hydroxyhexan-3-ylamino)-6-methylpyrimidin-5-yl)methyl)-3-methoxyphenoxy)propyl)pyrrolidine-2-carboxylic acid], the EC50 was 126 nM in assay [1] and greater than 10000 nM in assay [2]. The compound further showed an IC50 in assay [4] greater than 10000 nM.
As to `CCC[C@@H](CCO)Nc1nc(N)nc(C)c1Cc1ccc(OCCCN2CCC[C@H]2C(=O)O)cc1OC` [Example 9, (S)-1-(3-(4-((2-amino-4-((S)-1-hydroxyhexan-3-ylamino)-6-methylpyrimidin-5-yl)methyl)-3-methoxyphenoxy)propyl)pyrrolidine-2-carboxylic acid], the EC50 in assay [1] is 200 nM; in assay [2], greater than 10000 nM. This compound displayed an IC50 in assay [4] greater than 10000 nM.
Regarding `CCC[C@@H](CCO)Nc1nc(N)nc(C)c1Cc1ccc(OCCCN(CC)CCC(=O)O)cc1OC` [Example 10, (S)-3-((3-(4-((2-amino-4-(1-hydroxyhexan-3-ylamino)-6-methylpyrimidin-5-yl)methyl)-3-methoxyphenoxy)propyl)(ethyl)amino)propanoic acid], the EC50 in assay [1] was 251 nM; in assay [2], greater than 10000 nM.
The matching figures for `CCC[C@@H](CCO)Nc1nc(N)nc(C)c1Cc1ccc(OCCCN(CC)CC(=O)O)cc1OC` [Example 11, (S)-2-((3-(4-((2-amino-4-(1-hydroxyhexan-3-ylamino)-6-methylpyrimidin-5-yl)methyl)-3-methoxyphenoxy)propyl)(ethyl)amino)acetic acid]: 200 nM and greater than 10000 nM.
Turning to `CCC[C@@H](CCO)Nc1nc(N)nc(C)c1Cc1ccc(OCCCN(CC(=O)O)CC(F)F)cc1OC` [Example 12, (S)-2-((3-(4-((2-amino-4-(l-hydroxyhexan-3-ylamino)-6-methylpyrimidin-5-yl)methyl)-3-methoxyphenoxy)propyl)(2,2-difluoroethyl)amino)acetic acid], the EC50 was 100 nM in assay [1] and greater than 10000 nM in assay [2].
As for `CCC[C@@H](CCO)Nc1nc(N)nc(C)c1Cc1ccc(CN2CCC[C@@H]2C(=O)O)cc1OC` [Example 13, (R)-1-(4-((2-amino-4-((S)-1-hydroxyhexan-3-ylamino)-6-methylpyrimidin-5-yl)methyl)-3-methoxybenzyl)pyrrolidine-2-carboxylic acid], the EC50 in assay [1] is 200 nM; in assay [2] it was greater than 10000 nM.
Take `CCC[C@@H](CCO)Nc1nc(N)nc(C)c1Cc1ccc(Cn2cncc2C(=O)O)cc1OC` [Example 14, (S)-1-(4-((2-amino-4-(1-hydroxyhexan-3-ylamino)-6-methylpyrimidin-5-yl)methyl)-3-methoxybenzyl)-1H-imidazole-5-carboxylic acid]: the EC50 in assay [1] is 2000 nM; in assay [2] it was greater than 10000 nM.
